In patent US20240366550A1, “Drug for Treating Prostatitis or Benign Prostatic Hyperplasia (BPH)” (Beijing University of Chemical Technology, priority 2021, published 2024):
Read-outs that look alike come from different tables or passages of the source.

Experiments:
[1] = tested on: chronic bacterial prostatitis (type-II prostatitis patients)
Protocol: (§1) General information: this group of patients included 117 cases, aged 18 to 52 years old, with an average age of 34.5 years, and their disease duration ranged from 2 months to 5 years.
(§2) Treatment method: 10 mg of SFA per day for 4 to 6 weeks.
Criteria for determining efficacy: the patients were scored according to the Chronic Prostatitis Score (NIH2CPSI) of the National Institutes of Health (NIH); the efficacy was determined based on the patient's symptoms, routine examination results of prostate fluid obtained by massage, and VB3 and EPS bacterial culture results obtained by the Meares-Stamey four-cup test.

in vivo = conditions: po
prostatic hyperplasia = conditions: of 55 subjects in total
Protocol: as §1, §2

clinical = conditions: male, human, po, 10 mg
Protocol: The drug concentration of SFA in vivo was determined in 9 cases of the 115 patients: the patients took 10 mg of SFA orally every day for 3 consecutive days.

[2] = number of patients relieved/total number of patients
[3] = of the remaining 95 cases taking the drug for 6 weeks

C[S+]([O-])CCCCN=C=S (centres unmarked) [SFA, Sulforaphane]
total effective rate ([1]; 12 patients infected with Escherichia coli, 11 with Streptococcus agalactiae, 8 with Streptococcus faecalis): 10000 | total effective rate ([1]; 115 patients, 4 to 6 weeks): 88.7% | Urination symptom score ([1]; after treatment, 10 mg SFA per day for 4 to 6 weeks, before treatment 6.8 ± 1.1, P<0.01): 3.2 ± 1.1 | Quality of life score ([1]; after treatment, 10 mg SFA per day for 4 to 6 weeks, before treatment 15.2 ± 4.6, P<0.01): 7.5 ± 1.3 | Pain and discomfort score ([1]; after treatment, 10 mg SFA per day for 4 to 6 weeks, before treatment 15.3 ± 2.6, P<0.01): 10.3 ± 3.2 | NIH-CPSI score ([1]; after treatment, 10 mg SFA per day for 4 to 6 weeks, before treatment 35.2 ± 3.3, P<0.01): 20.1 ± 5.6 | White blood cells in prostatic fluid obtained by massage: Negative ([1]; after treatment, before treatment 0): 32 number of people | White blood cells in prostatic fluid obtained by massage: ++++ ([1]; after treatment, before treatment 14): 4 number of people | White blood cells in prostatic fluid obtained by massage: +++ ([1]; after treatment, before treatment 28): 9 number of people | White blood cells in prostatic fluid obtained by massage: + ([1]; after treatment, before treatment 31): 49 number of people | White blood cells in prostatic fluid obtained by massage: ++ ([1]; after treatment, before treatment 44): 21 number of people | Relieving rate, distending pain and discomfort in the suprapubic region [1, 2]: 82.9% | Relieving rate, ejaculation pain [1, 2]: 81.2% | Relieving rate, feeling of incomplete urination [1, 2]: 67.1% | Relieving rate, frequent urination [1, 2]: 80.2% | Relieving rate, labored urination [1, 2]: 72.6% | Relieving rate, penis pain [1, 2]: 77.3% | Relieving rate, perineum pain [1, 2]: 69.5% | Relieving rate, urgent urination [1, 2]: 81.3% | Relieving rate, white urine [1, 2]: 91.2% | cases cured within 4 weeks of taking the drug ([1]; of 115 patients who completed treatment, 10 mg per day): 20 cases | cases cured [1, 3]: 15 cases | cases effective [1, 3]: 23 cases | cases ineffective [1, 3]: 13 cases | cases markedly effective [1, 3]: 44 cases | bioavailability (in vivo): 90% | Number of subjects, prostatic hyperplasia: Cured (prostatic hyperplasia): 52 | Number of subjects, prostatic hyperplasia: Effective (prostatic hyperplasia): 2 | Number of subjects, prostatic hyperplasia: Ineffective (prostatic hyperplasia): 1 | concentration at 6 h (clinical; blood): 50.6 to 182 ng/mL | concentration at 6 h (clinical; prostatic fluid obtained by massage): 13.5 to 22.8 ng/mL | concentration at 6 h (clinical; semen): 2.6 to 5.5 ng/mL
